Data published in ChEMBL document CHEMBL4396902, “Development of a Platform To Enable Efficient Permeability Evaluation of Novel Organo-Peptide Macrocycles” (ACS Med Chem Lett, 2019).

Experiment: Apparent permeability in dog MDCK2 cells incubated for 3 hrs
Type: ADME, cell-based, Canis lupus familiaris
Conditions: mdck-ii

Structure (SMILES) | Papp [×10⁻⁶ cm/s]
CC[C@H](C)[C@@H]1NC(=O)CCCNc2cccc(c2)CNC(=O)[C@@H]2CCCN2C(=O)[C@H](Cc2ccc(F)cc2)NC(=O)[C@H](CC2CCCCC2)NC1=O | 2.9
CC(C)C[C@H]1NC(=O)[C@@H](C(C)C)NC(=O)CNc2cccc(c2)CCNC(=O)[C@@H]2CCCN2C(=O)[C@H](Cc2ccc(F)cc2)NC1=O | 4
CC(C)C[C@H]1NC(=O)[C@@H](C(C)C)NC(=O)CNc2ccccc2CCNC(=O)[C@@H]2CCCN2C(=O)[C@H](Cc2ccc(F)cc2)NC1=O | 5.5
CC[C@H](C)[C@@H]1NC(=O)CNc2cccc(c2)CNC(=O)[C@@H]2CCCN2C(=O)[C@H](Cc2ccc(F)cc2)NC(=O)[C@H](CC2CCCCC2)NC1=O | 3.9
CC[C@H](C)[C@@H]1NC(=O)CNc2ccccc2CCNC(=O)[C@@H]2CCCN2C(=O)[C@@H](Cc2ccccc2)NC(=O)[C@@H](CC(C)C)NC1=O | 14.5
CC[C@H](C)[C@@H]1NC(=O)CNc2cccc(c2)CCNC(=O)[C@@H]2CCCN2C(=O)[C@H](Cc2ccc(F)cc2)NC(=O)[C@@H](CC(C)C)NC1=O | 5.7
CC[C@H](C)[C@@H]1NC(=O)CNc2ccccc2CCNC(=O)[C@@H]2CCCN2C(=O)[C@H](Cc2ccc(F)cc2)NC(=O)[C@@H](CC(C)C)NC1=O | 12.9
CC[C@H](C)[C@@H]1NC(=O)CNc2cccc(c2)CCNC(=O)[C@@H]2CCCN2C(=O)[C@@H](Cc2ccccc2)NC(=O)[C@@H](CC(C)C)NC1=O | 7.6
